In assay [1] the test system is tumor endothelial cells (CT26.CL25 colon cancer tumor). The assay is described as follows: Colon CT26 ex vivo model of tumor angiogenesis. It is filed as cell-based. Particulars: Mus musculus, CT26, 48 h, read-out: Cell death. The procedure, abridged: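 Explant pieces of CT26 tumor (about 0.075 mm^3) were embedded in Matrigel and grown in endothelial growth medium at 37 °C for about 7 days until endothelial outgrowth appeared, then treated. Cell death was read about 48 h after drug addition by fluorescein diacetate (live) and propidium iodide (dead) staining with red/green imaging.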

The test system of assay [2] is tumor endothelial cells (LL/2 lung cancer tumor). The assay is described as follows: Lung LL2 ex vivo model of tumor angiogenesis. Particulars: for cytotoxicity at 40 µM / cytotoxicity at 20 µM: Mus musculus, Endothelial cell, 48 h, read-out: Cell death; for Cell death: Lung LL2 ex vivo, drug treatment two days. In kind it is cell-based, mouse. Put shortly:
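Read-out is live/dead fluorescence imaging (fluorescein diacetate green, propidium iodide red, 10 min at 37° C) at 2×, taken e.g. 48 h after drug addition. Fragments of mouse LL2 tumor are cultured in Matrigel with endothelial growth medium, usually 4 days, until new endothelial cells grow out, then treated.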

The values that follow come from patent US11884647B2, “Compounds and methods for targeting pathogenic blood vessels” (THE REGENTS OF THE UNIVERSITY OF CALIFORNIA, priority 2019, dated 2024).

As for `CCOC(=O)c1ccc2ncc(S(=O)(=O)c3ccc(CC)cc3)c(N3CCC(N4CCCCC4)CC3)c2c1` [compound 64, ethyl 4-([1,4′-bipiperidin]-1′-yl)-3-((4-ethylphenyl)sulfonyl)quinoline-6-carboxylate], the cytotoxicity at 40 µM in assay [1] and in assay [2] was 100% each time.

For the compound `CCCCOc1ccc(S(=O)(=O)c2cnc3ccc(C(=O)OCC)cc3c2N2CCC(N3CCN(CCO)CC3)CC2)cc1` [compound 214, ethyl 3-((4-butoxyphenyl)sulfonyl)-4-(4-(4-(2-hydroxyethyl)piperazin-1-yl)piperidin-1-yl)quinoline-6-carboxylate], the cytotoxicity at 40 µM in assay [1] and in assay [2] was 100% in each case.

`CCCCOc1ccc(S(=O)(=O)c2cnc3ccc(C(=O)OCC)cc3c2N2CCC(N3CCCCC3)CC2)cc1` [compound 157, ethyl 4-([1,4′-bipiperidin]-1′-yl)-3-((4-butoxyphenyl)sulfonyl)quinoline-6-carboxylate]: the cytotoxicity at 40 µM is 60% in assay [1] and 100% in assay [2].

With `CCc1ccc(S(=O)(=O)c2cnc3ccc(OC(F)(F)F)cc3c2N2CCC(N3CCC(O)CC3)CC2)cc1` [compound 102, 1′-(3-((4-ethylphenyl)sulfonyl)-6-(trifluoromethoxy)quinolin-4-yl)-[1,4′-bipiperidin]-4-ol], the cytotoxicity at 40 µM in assay [1] is 5%. Also, the Cell death in assay [2] (Conc. 20 μm) is on record as 20%.

For `CCc1ccc(S(=O)(=O)c2cnc3ccc([N+](=O)[O-])cc3c2N2CCC(N3CCCCC3)CC2)cc1` [compound 77, 4-([1,4′-bipiperidin]-1′-yl)-3-((4-ethylphenyl)sulfonyl)-6-nitroquinoline], the figures for the cytotoxicity at 40 µM in assay [1] and in assay [2] were 40% and 80%, respectively.

Regarding `N#Cc1ccc(S(=O)(=O)c2cnc3ccc(OC(F)(F)F)cc3c2N2CCC(N3CCCCC3)CC2)cc1` [compound 54, 4-((4-([1,4′-bipiperidin]-1′-yl)-6-(trifluoromethoxy)quinolin-3-yl)sulfonyl)benzonitrile], the cytotoxicity at 40 µM stood at 10% in assay [1] and 50% in assay [2].

Consider `CCCCOc1ccc(S(=O)(=O)c2cnc3ccc(C(=O)NC(C)C)cc3c2N2CCCN(C)CC2)cc1` [compound 192, 3-((4-butoxyphenyl)sulfonyl)-N-isopropyl-4-(4-methyl-1,4-diazepan-1-yl)quinoline-6-carboxamide], for which the cytotoxicity at 40 µM came to 10% in assay [1] and 60% in assay [2].

In the case of `CCc1ccc(S(=O)(=O)c2cnc3ccc(OC(F)(F)F)cc3c2N(C)Cc2ccccc2)cc1` [compound 49, N-benzyl-3-((4-ethylphenyl)sulfonyl)-N-methyl-6-(trifluoromethoxy)quinolin-4-amine], the cytotoxicity at 40 µM in assay [1] amounted to 10%; in assay [2], 30%.

With `COc1ccc(S(=O)(=O)c2cnc3ccc(OC(F)(F)F)cc3c2N(CCO)CCO)cc1OC` [compound 72, 2,2′-((3-((3,4-dimethoxyphenyl)sulfonyl)-6-(trifluoromethoxy)quinolin-4-yl)azanediyl)bis(ethan-1-ol)], the cytotoxicity at 40 µM in assay [1] turned out to be 0%; in assay [2], 20%.

For `CCc1ccc(S(=O)(=O)c2cnc3ccc([N+](=O)[O-])cc3c2N(CC)CC)cc1` [compound 78, N,N-diethyl-3-((4-ethylphenyl)sulfonyl)-6-nitroquinolin-4-amine], the cytotoxicity at 40 µM came to 0% in assay [1] and 40% in assay [2].

For `CCCCOc1ccc(S(=O)(=O)c2cnc3ccc(OC(F)(F)F)cc3c2N2CCCN(C)CC2)cc1` [compound 151, 3-((4-butoxyphenyl)sulfonyl)-4-(4-methyl-1,4-diazepan-1-yl)-6-(trifluoromethoxy)quinoline], the cytotoxicity at 40 µM in assay [1] and in assay [2] was 100% in each case.

As to `CCCCCCCOc1ccc(S(=O)(=O)c2cnc3ccc([S+](C)[O-])cc3c2N2CCN(C)CC2)cc1` (centres unmarked) [compound 259, 3-((4-(heptyloxy)phenyl)sulfonyl)-4-(4-methylpiperazin-1-yl)-6-(methylsulfinyl)quinoline], the cytotoxicity at 20 µM worked out at 100% in assay [1] and 95% in assay [2].

Turning to `CCN(CC)C(=O)c1ccc2ncc(S(=O)(=O)c3ccc(OC)cc3)c(N3CCCN(C)CC3)c2c1` [compound 165, N,N-diethyl-3-((4-methoxyphenyl)sulfonyl)-4-(4-methyl-1,4-diazepan-1-yl)quinoline-6-carboxamide], the cytotoxicity at 40 µM in assay [1] and in assay [2] was 10% each time.

For `COc1ccc(S(=O)(=O)c2cnc3cc(OC)c(OC)cc3c2-n2cncn2)cc1OC` [compound 96, 3-((3,4-dimethoxyphenyl)sulfonyl)-6,7-dimethoxy-4-(1H-1,2,4-triazol-1-yl)quinoline], in assay [1], the cytotoxicity at 10 µM was 0%. Moreover, the cytotoxicity at 20 µM in assay [2] is 0%.

For the compound `CCCCCCCOc1ccc(S(=O)(=O)c2cnc3ccc([S+](C)[O-])cc3c2N2CCCN(C)CC2)cc1` (centres unmarked) [compound 220, 3-((4-(heptyloxy)phenyl)sulfonyl)-4-(4-methyl-1,4-diazepan-1-yl)-6-(methylsulfinyl)quinoline], the cytotoxicity at 40 µM in assay [1] and in assay [2] was 100% throughout.

As to `CCc1ccc(S(=O)(=O)c2cnc3ccc(OC(F)(F)F)cc3c2-n2ccnn2)cc1` [compound 110, 3-((4-ethylphenyl)sulfonyl)-4-(1H-1,2,3-triazol-1-yl)-6-(trifluoromethoxy)quinoline], the cytotoxicity at 40 µM in assay [1] is 10%. Besides, the cytotoxicity at 20 µM in assay [2] is 95%.

As for `CCCCN(CCCC)c1c(S(=O)(=O)c2ccc(OC)cc2)cnc2ccc(C(=O)OCC)cc12` [compound 155, ethyl 4-(dibutylamino)-3-((4-methoxyphenyl)sulfonyl)quinoline-6-carboxylate], the cytotoxicity at 40 µM in assay [1] is 20%. In addition, the Cell death in assay [2] (Conc. 40 μm) was found to be 80%.

Consider `CCCCCCCOc1ccc(S(=O)(=O)c2cnc3ccc([S+](C)[O-])cc3c2N2CCC(N3CCC(N4CCCCC4)CC3)CC2)cc1` (centres unmarked) [compound 258, 4-([1,4′:1′,4″-terpiperidin]-1″-yl)-3-((4-(heptyloxy)phenyl)sulfonyl)-6-(methylsulfinyl)quinoline], for which the cytotoxicity at 10 µM in assay [1] worked out at 100%. The cytotoxicity at 20 µM in assay [2] was 100%.

Consider `COc1ccc(S(=O)(=O)c2cnc3ccc([N+](=O)[O-])cc3c2-n2cncn2)cc1` [compound 97, 3-((4-methoxyphenyl)sulfonyl)-6-nitro-4-(1H-1,2,4-triazol-1-yl)quinoline], for which the cytotoxicity at 10 µM in assay [1] amounted to 100%. Besides, the cytotoxicity at 20 µM in assay [2] came to 50%.

On to `CCc1ccc(S(=O)(=O)c2cnc3ccc(OC(F)(F)F)cc3c2NN2CCN(C)CC2)cc1` [compound 50, 3-((4-ethylphenyl)sulfonyl)-N-(4-methylpiperazin-1-yl)-6-(trifluoromethoxy)quinolin-4-amine], for which the cytotoxicity at 40 µM came to 100% in assay [1] and 90% in assay [2].

On to `CCc1ccc(S(=O)(=O)c2cnc3ccc(C(=O)O)cc3c2N2CCC(N3CCCCC3)CC2)cc1` [compound 67, 4-([1,4′-bipiperidin]-1′-yl)-3-((4-ethylphenyl)sulfonyl)quinoline-6-carboxylic acid], for which the figures for the cytotoxicity at 40 µM in assay [1] and in assay [2] were 0% and 10%, respectively.

On to `CCc1ccc(S(=O)(=O)c2cnc3ccc(OC(F)(F)F)cc3c2N2CCC(CO)CC2)cc1` [compound 48, (1-(3-((4-ethylphenyl)sulfonyl)-6-(trifluoromethoxy)quinolin-4-yl)piperidin-4-yl)methanol], for which the cytotoxicity at 40 µM in assay [1] was found to be 10%; in assay [2], 60%.

`CCCCOc1ccc(S(=O)(=O)c2cnc3ccc([S+](C)[O-])cc3c2N2CCCN(C)CC2)cc1` (centres unmarked) [compound 163, 3-((4-butoxyphenyl)sulfonyl)-4-(4-methyl-1,4-diazepan-1-yl)-6-(methylsulfinyl)quinoline]: the cytotoxicity at 40 µM in assay [1] worked out at 100%; in assay [2], 95%.

Regarding `CCCCOc1ccc(S(=O)(=O)c2cnc3ccc([S+](C)[O-])cc3c2N2CCC(N3CCC(O)(c4ccccc4)CC3)CC2)cc1` (centres unmarked) [compound 238, 1′-(3-((4-butoxyphenyl)sulfonyl)-6-(methylsulfinyl)quinolin-4-yl)-4-phenyl-[1,4′-bipiperidin]-4-ol], the cytotoxicity at 10 µM in assay [1] was found to be 10%. Moreover, in assay [2], the cytotoxicity at 40 µM worked out at 100%.

Consider `CCc1ccc(S(=O)(=O)c2cnc3ccc(OC(F)(F)F)cc3c2N2CCCN(CC(=O)O)CC2)cc1` [compound 42, 2-(4-(3-((4-ethylphenyl)sulfonyl)-6-(trifluoromethoxy)quinolin-4-yl)-1,4-diazepan-1-yl)acetic acid], for which the cytotoxicity at 40 µM in assay [1] is 0%; in assay [2], 30%.

As to `CCOC(=O)c1ccc2ncc(S(=O)(=O)c3ccc(OC)cc3)c(N(CCO)CCO)c2c1` [compound 156, ethyl 4-(bis(2-hydroxyethyl)amino)-3-((4-methoxyphenyl)sulfonyl)quinoline-6-carboxylate], the cytotoxicity at 40 µM in assay [1] was 0%. For the same compound, in assay [2] (Conc. 40 μm), the Cell death is 30%.

In the case of `CCc1ccc(S(=O)(=O)c2cnc3ccc(C(=O)O)cc3c2N2CCCN(C)CC2)cc1` [compound 66, 3-((4-ethylphenyl)sulfonyl)-4-(4-methyl-1,4-diazepan-1-yl)quinoline-6-carboxylic acid], the values for the cytotoxicity at 40 µM in assay [1] and in assay [2] were 0% and 10%, respectively.

Turning to `CCc1ccc(S(=O)(=O)c2cnc3ccc(OC(F)(F)F)cc3c2N2CCC(N3CCCC3)CC2)cc1` [compound 46, 3-((4-ethylphenyl)sulfonyl)-4-(4-(pyrrolidin-1-yl)piperidin-1-yl)-6-(trifluoromethoxy)quinoline], the cytotoxicity at 40 µM in assay [1] and in assay [2] was 100% throughout.
